Reference: paper PMC2890037 (Biochemistry, 2010)
Positions count from the first letter of the chain named.

Columns and labels:
Format in all cases: biochemical
[1] = molecular target: T1, triosephosphate isomerase (TIM), wildtype yeast (Saccharomyces cerevisiae, UniProt P00942)
T1 sequence (P00942 2-248): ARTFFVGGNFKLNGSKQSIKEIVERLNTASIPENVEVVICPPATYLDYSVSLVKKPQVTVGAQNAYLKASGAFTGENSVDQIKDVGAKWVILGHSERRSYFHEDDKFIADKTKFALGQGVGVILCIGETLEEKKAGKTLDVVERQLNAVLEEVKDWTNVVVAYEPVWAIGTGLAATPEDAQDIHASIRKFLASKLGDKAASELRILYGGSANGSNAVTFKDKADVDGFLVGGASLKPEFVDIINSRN

[2] = molecular target: T2, triosephosphate isomerase (TIM), K12G mutant yeast (Saccharomyces cerevisiae, UniProt P00942, K12G)
T2 sequence (P00942 2-248 K12G): T1 sequence (P00942 2-248) with K11G

[3] = molecular target: T1, triosephosphate isomerase (TIM), wildtype yeast; assay: steady-state kinetics of isomerization; settings: read-out: Km ^b mM

`O=C(O)COP(=O)(O)O` [PGA, 2-phosphoglycolate] gave a Ki [1] of 19 ± 4 µM and a Ki [2] of 1100 ± 200 µM.

`O=C[C@H](O)COP(=O)(O)O` [GAP, (R)-glyceraldehyde 3-phosphate] was tested, and the Km [3] was 1.1 ± 0.2 mM.
